Where two headings read alike, the source gives them in different places.
Tests used:
IL-23R = assay: Real-Time qRT-PCR gene expression in TH17 cells (IL-23R); type: cell-based, human; design: key: A: No change in gene expression observed relative to DMSO treated Th17 cells; B: Decreased gene expression observed relative to DMSO treated Th17 cells; C: Increased gene expression observed relative to DMSO treated Th17 cells; conditions: normalized to six reference genes
Protocol: (§1) Peripheral blood mononuclear cells (PBMCs) were sourced from freshly prepared leukocyte enriched plasma (buffy coat) from healthy volunteers from which PBMCs were isolated by density gradient centrifugation using Ficoll-Paque™ PLUS (GE Healthcare). Naïve CD4+ T cells were isolated using the Naïve CD4+ T cell Isolation Kit II (Miltenyi Biotec) as per manufacturer's instructions. CD4+ T cells were plated at 5×10^4 cells/well in 96 well plates pre-coated with immobilized human (h)-αCD3 antibody (eBioscience) then differentiated to TH17 cells using h-αCD28, h-αIFN-γ, h-αIL-4, h-IL-6, h-IL-23, h-IL-1β, h-TGF-β1 (eBioscience) and maintained in a cell culture incubator at 37° C. with 5% CO2 in TexMACS Medium (Miltenyi Biotec) supplemented with 1% Penicillin/Streptomycin (Lonza) over 5 days.
(§2) RNA was isolated from TH17 cells and cDNA was synthesized using the Verso cDNA kit (Thermo Scientific) as per manufacturer's instructions. IL-17A, IL-17F, IL-21, IL-22, G-CSF, IL-23R and FOXP3 gene expression were determined for compound treated and untreated TH17 cell samples using Solaris qPCR Gene expression assays (Thermo Scientific) with an iCycler iQ Real-Time PCR Detection System (Bio-Rad). Individual gene expression was normalized to a panel of six reference genes (ACTB, TBP, HPRT1, PGK1, TFRC and PPIA) (Thermo Scientific) and analyzed by REST 2009 (Qiagen) in accordance to MIQE guidelines (Bustin et al. (2009) Clin. Chem, 55:611-622). The effects of compounds on TH17 cytokine gene expression are presented as fold change in mRNA levels of compound treated TH17 cells relative to DMSO treated cells in the table below.

RORα LBD [1] = target: T1, RORα LBD (Homo sapiens, UniProt P35398); assay: TR-FRET NCoR1-D2 co-repressor recruitment to RORα LBD; type: biochemical
T1 construct: purified GST-tagged (i) RORγ LBD or (ii) RORα LBD; purchased Life Technologies
T1 sequence (P35398 272-510 limits assumed): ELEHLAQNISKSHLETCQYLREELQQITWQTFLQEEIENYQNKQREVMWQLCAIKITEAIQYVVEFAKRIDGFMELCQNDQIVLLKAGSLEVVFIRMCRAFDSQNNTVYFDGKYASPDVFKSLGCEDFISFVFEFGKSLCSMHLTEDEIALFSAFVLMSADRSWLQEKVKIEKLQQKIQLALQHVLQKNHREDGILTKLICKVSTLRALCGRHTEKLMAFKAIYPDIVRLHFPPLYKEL
Description: (§3) The Time-Resolved Fluorescence Resonance Energy Transfer (TR-FRET) assay kit (Life Technologies) was used to measure compound efficacy to disrupt or enhance ligand-mediated interaction of the co-activator and co-repressor peptides with the purified GST-tagged (i) RORγ LBD or (ii) RORα LBD. The RORγ LBD and RORα LBD each have a basal level of interaction with the co-activator D22 or co-repressor NCoR1-D2 in the absence of ligand, thus it is possible to identify compounds that inhibit or induce RORγ and/or RORα co-activator/co-repressor interactions, thus determining RORα, RORγ, or RORα/RORγ compound selectivity. The assay was performed as per manufacturer's instructions and TR-FRET was assessed 2 and 20 hours post-assay initiation. Compounds were identified to (i) have no impact on either co-activator displacement or […] from the assessed LBD (ii) promote co-activator displacement from the assessed LBD (iii) promote co-repressor recruitment to the assessed LBD or (iv) concurrently promote co-activator displacement from the assessed LBD and co-repressor recruitment to the assessed LBD.

IL-17F = assay: TH17 cytokine inhibition measured by ELISA (IL-17F); type: cell-based; conditions: 120 h; human TH17 cells, 5 days differentiation, ELISA of supernatants, 0.1% DMSO
Protocol: as §1
Human CD4+ T cells were differentiated to TH17 cells as described in the presence or absence of various concentrations of compounds in a final concentration of 0.1% DMSO in TexMACS medium. Supernatants were collected and stored at −20° C. until they were to be assayed for IL-17A, IL-17F, IL-17AF, IL-21 and/or IL-22 levels as determined by Ready-Set-Go ELISA kits (eBioscience) as per manufacturer's instructions. Endpoint absorbance was read at 450 nm and 570 nm according to manufacturer's instructions (eBioscience) using a microplate reader (Perkin Elmer). The percentage of cytokine inhibition was calculated with reference to DMSO treated cells and the IC50s were determined by GraphPad Prism software and presented in the table below.

RORα LBD [2] = target: T1, RORα LBD; assay: TR-FRET D22 co-activator displacement from RORα LBD; type: biochemical
Description: as §3

RORγ LBD [3] = target: T2, RORγ LBD (Homo sapiens, UniProt P51449); assay: RORγ LBD binding (Human RORγ Assay System, INDIGO Biosciences); design: purchased INDIGO Biosciences Inc; conditions: 0.5% DMSO
T2 sequence (P51449 269-508 limits assumed): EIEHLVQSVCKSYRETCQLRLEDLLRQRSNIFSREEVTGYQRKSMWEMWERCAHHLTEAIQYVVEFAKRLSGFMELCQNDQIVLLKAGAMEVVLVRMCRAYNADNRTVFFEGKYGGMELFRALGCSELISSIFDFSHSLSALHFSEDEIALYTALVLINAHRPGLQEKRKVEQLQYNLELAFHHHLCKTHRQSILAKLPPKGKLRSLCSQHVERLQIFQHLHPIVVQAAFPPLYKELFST
Protocol: Compound binding to the human RORγ LBD was assessed using the Human RORγ Assay System (INDIGO Biosciences Inc.) as per manufacturer's instructions.

IL-22 = assay: Real-Time qRT-PCR gene expression in TH17 cells (IL-22); type: cell-based, human; design: key: A: No change in gene expression observed relative to DMSO treated Th17 cells; B: Decreased gene expression observed relative to DMSO treated Th17 cells; C: Increased gene expression observed relative to DMSO treated Th17 cells; conditions: normalized to six reference genes
Protocol: as §1, §2

RORγ LBD [4] = target: T2, RORγ LBD; assay: TR-FRET NCoR1-D2 co-repressor recruitment to RORγ LBD; type: biochemical; design: purified GST-tagged (i) RORγ LBD or (ii) RORα LBD; purchased Life Technologies
Description: as §3

[5] = TR-FRET assessed 2 hr post-assay initiation, read-out: RORα EC50 NCoR1-D2 co-repressor recruitment, 2 hr
[6] = TR-FRET assessed 20 hr post-assay initiation, read-out: RORα EC50 NCoR1-D2 co-repressor recruitment, 20 hr
[7] = TR-FRET assessed 2 hr post-assay initiation, read-out: RORα EC50 D22 co-activator displacement, 2 hr
[8] = TR-FRET assessed 20 hr post-assay initiation, read-out: RORα EC50 D22 co-activator displacement, 20 hr
[9] = TR-FRET assessed 2 hr post-assay initiation, read-out: RORγ EC50 NCoR1-D2 co-repressor recruitment, 2 hr
[10] = TR-FRET assessed 20 hr post-assay initiation, read-out: RORγ EC50 NCoR1-D2 co-repressor recruitment, 20 hr

Compound: Cc1cc(-c2ccc3c(c2)CCCN3Cc2ccc(C(O)(C(F)(F)F)C(F)(F)F)cc2)[nH]n1 [Example 1, 1,1,1,3,3,3-hexafluoro-2-(4-((6-(3-methyl-1H-pyrazol-5-yl)-3,4-dihydroquinolin-1(2H)-yl)methyl)phenyl)propan-2-ol]
- Fold change in mRNA levels of compound treated TH17 cells relative to DMSO treated cells, IL-23R (IL-23R): A
- EC50 (RORα LBD [1]; [5]): < 30 µM
- EC50 (RORα LBD [1]; [6]): < 30 µM
- IC50 (IL-17F): < 10 µM
- EC50 (RORα LBD [2]; [7]): > 30 µM
- EC50 (RORα LBD [2]; [8]): < 30 µM
- IC50 (RORγ LBD [3]): > 10 µM
- Fold change in mRNA levels of compound treated TH17 cells relative to DMSO treated cells, IL-22 (IL-22): B
- EC50 (RORγ LBD [4]; [9]): > 30 µM
- EC50 (RORγ LBD [4]; [10]): < 30 µM

Compound: OC(c1ccc(CN2CCCc3cc(-c4cn[nH]c4)ccc32)cc1)(C(F)(F)F)C(F)(F)F [Example 2, 2-(4-((6-(1H-pyrazol-4-yl)-3,4-dihydroquinolin-1(2H)-yl)methyl)phenyl)-1,1,1,3,3,3-hexafluoropropan-2-ol]
- Fold change in mRNA levels of compound treated TH17 cells relative to DMSO treated cells, IL-23R (IL-23R): A
- EC50 (RORα LBD [1]; [5]): < 30 µM
- EC50 (RORα LBD [1]; [6]): < 30 µM
- IC50 (IL-17F): < 10 µM
- EC50 (RORα LBD [2]; [7]): < 30 µM
- EC50 (RORα LBD [2]; [8]): < 30 µM
- IC50 (RORγ LBD [3]): > 10 µM
- Fold change in mRNA levels of compound treated TH17 cells relative to DMSO treated cells, IL-22 (IL-22): B
- EC50 (RORγ LBD [4]; [9]): < 30 µM
- EC50 (RORγ LBD [4]; [10]): < 30 µM

Compound: Cc1n[nH]c(-c2ccc3c(c2)CCCN3Cc2ccc(C(O)(C(F)(F)F)C(F)(F)F)cc2)n1 [Example 3, 1,1,1,3,3,3-hexafluoro-2-(4-((6-(3-methyl-1H-1,2,4-triazol-5-yl)-3,4-dihydroquinolin-1(2H)-yl)methyl)phenyl)propan-2-ol]
- Fold change in mRNA levels of compound treated TH17 cells relative to DMSO treated cells, IL-23R (IL-23R): A
- EC50 (RORα LBD [1]; [5]): > 30 µM
- EC50 (RORα LBD [1]; [6]): < 30 µM
- IC50 (IL-17F): < 10 µM
- EC50 (RORα LBD [2]; [7]): > 30 µM
- EC50 (RORα LBD [2]; [8]): > 30 µM
- IC50 (RORγ LBD [3]): > 10 µM
- Fold change in mRNA levels of compound treated TH17 cells relative to DMSO treated cells, IL-22 (IL-22): B
- EC50 (RORγ LBD [4]; [9]): > 30 µM
- EC50 (RORγ LBD [4]; [10]): < 30 µM

Compound: Cc1cc(-c2ccc3c(c2)CCC(=O)N3Cc2ccc(C(O)(C(F)(F)F)C(F)(F)F)cc2)[nH]n1 [Example 4, 1-(4-(1,1,1,3,3,3-hexafluoro-2-hydroxypropan-2-yl)benzyl)-6-(3-methyl-1H-pyrazol-5-yl)-3,4-dihydroquinolin-2(1H)-one]
- Fold change in mRNA levels of compound treated TH17 cells relative to DMSO treated cells, IL-23R (IL-23R): A
- EC50 (RORα LBD [1]; [5]): > 30 µM
- EC50 (RORα LBD [1]; [6]): < 30 µM
- IC50 (IL-17F): < 10 µM
- EC50 (RORα LBD [2]; [7]): > 30 µM
- EC50 (RORα LBD [2]; [8]): > 30 µM
- IC50 (RORγ LBD [3]): < 10 µM
- Fold change in mRNA levels of compound treated TH17 cells relative to DMSO treated cells, IL-22 (IL-22): B
- EC50 (RORγ LBD [4]; [9]): > 30 µM
- EC50 (RORγ LBD [4]; [10]): < 30 µM

Compound: O=C1CCc2cc(-c3cn[nH]c3)ccc2N1Cc1ccc(C(O)(C(F)(F)F)C(F)(F)F)cc1 [Example 5, 1-(4-(1,1,1,3,3,3-hexafluoro-2-hydroxypropan-2-yl)benzyl)-6-(1H-pyrazol-4-yl)-3,4-dihydroquinolin-2(1H)-one]
- Fold change in mRNA levels of compound treated TH17 cells relative to DMSO treated cells, IL-23R (IL-23R): A
- EC50 (RORα LBD [1]; [5]): < 30 µM
- EC50 (RORα LBD [1]; [6]): > 30 µM
- IC50 (IL-17F): < 10 µM
- EC50 (RORα LBD [2]; [7]): > 30 µM
- EC50 (RORα LBD [2]; [8]): > 30 µM
- IC50 (RORγ LBD [3]): > 10 µM
- Fold change in mRNA levels of compound treated TH17 cells relative to DMSO treated cells, IL-22 (IL-22): A
- EC50 (RORγ LBD [4]; [9]): > 30 µM
- EC50 (RORγ LBD [4]; [10]): < 30 µM

Compound: Cc1n[nH]c(-c2ccc3c(c2)CCC(=O)N3Cc2ccc(C(O)(C(F)(F)F)C(F)(F)F)cc2)n1 [Example 6, 1-(4-(1,1,1,3,3,3-hexafluoro-2-hydroxypropan-2-yl)benzyl)-6-(3-methyl-1H-1,2,4-triazol-5-yl)-3,4-dihydroquinolin-2(1H)-one]
- Fold change in mRNA levels of compound treated TH17 cells relative to DMSO treated cells, IL-23R (IL-23R): C
- EC50 (RORα LBD [1]; [5]): > 30 µM
- EC50 (RORα LBD [1]; [6]): > 30 µM
- IC50 (IL-17F): > 10 µM
- EC50 (RORα LBD [2]; [7]): < 30 µM
- EC50 (RORα LBD [2]; [8]): < 30 µM
- IC50 (RORγ LBD [3]): > 10 µM
- Fold change in mRNA levels of compound treated TH17 cells relative to DMSO treated cells, IL-22 (IL-22): B
- EC50 (RORγ LBD [4]; [9]): > 30 µM
- EC50 (RORγ LBD [4]; [10]): > 30 µM
